Results on 36 compounds are retold here after ChEMBL document CHEMBL1148660, “Identification of an indole series of prostaglandin D2 receptor antagonists” (Bioorg Med Chem Lett, 2006).

One test has as its target Prostacyclin receptor (Homo sapiens, UniProt P43119). In words: Binding affinity to IP receptor.
Test [1] has as its target Prostaglandin E2 receptor EP2 subtype (Homo sapiens, UniProt P43116). Nature of the test: Binding affinity to EP2 receptor.
Test [2] concerns the target T1, Prostaglandin E2 receptor EP3 subtype (Homo sapiens, UniProt P43115).
T1 sequence (P43115 whole entry): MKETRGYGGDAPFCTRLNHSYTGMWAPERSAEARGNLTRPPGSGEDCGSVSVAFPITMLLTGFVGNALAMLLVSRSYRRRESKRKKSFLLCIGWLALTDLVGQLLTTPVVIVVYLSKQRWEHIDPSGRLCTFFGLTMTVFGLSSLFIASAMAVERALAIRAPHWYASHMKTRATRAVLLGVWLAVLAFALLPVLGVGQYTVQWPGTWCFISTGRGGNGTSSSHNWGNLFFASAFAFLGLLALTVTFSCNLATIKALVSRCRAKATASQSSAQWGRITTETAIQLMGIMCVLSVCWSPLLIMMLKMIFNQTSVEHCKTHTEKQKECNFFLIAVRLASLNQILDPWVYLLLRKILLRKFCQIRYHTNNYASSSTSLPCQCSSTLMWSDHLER
Nature of the test: Binding affinity to EP3 receptor.

For test [3], the target named is T2, Prostaglandin E2 receptor EP1 subtype (Homo sapiens, UniProt P34995).
T2 sequence (P34995 whole entry): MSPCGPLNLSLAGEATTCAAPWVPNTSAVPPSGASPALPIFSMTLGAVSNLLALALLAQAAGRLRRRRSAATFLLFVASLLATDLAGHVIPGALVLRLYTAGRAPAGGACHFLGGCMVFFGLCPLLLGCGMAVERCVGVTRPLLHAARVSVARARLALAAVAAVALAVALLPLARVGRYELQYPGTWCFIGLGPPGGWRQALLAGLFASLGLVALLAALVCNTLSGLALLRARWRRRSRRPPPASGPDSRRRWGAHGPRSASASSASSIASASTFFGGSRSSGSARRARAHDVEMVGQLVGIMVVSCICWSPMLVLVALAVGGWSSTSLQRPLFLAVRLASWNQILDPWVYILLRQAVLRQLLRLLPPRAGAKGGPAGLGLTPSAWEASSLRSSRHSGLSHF
In words: Binding affinity to EP1 receptor.

In test [4] the target is Prostaglandin F2-alpha receptor (Homo sapiens, UniProt P43088). In words: Binding affinity to FP receptor.
Test [5] addresses T3, Prostaglandin D2 receptor (Homo sapiens, UniProt Q13258).
T3 sequence (Q13258 whole entry): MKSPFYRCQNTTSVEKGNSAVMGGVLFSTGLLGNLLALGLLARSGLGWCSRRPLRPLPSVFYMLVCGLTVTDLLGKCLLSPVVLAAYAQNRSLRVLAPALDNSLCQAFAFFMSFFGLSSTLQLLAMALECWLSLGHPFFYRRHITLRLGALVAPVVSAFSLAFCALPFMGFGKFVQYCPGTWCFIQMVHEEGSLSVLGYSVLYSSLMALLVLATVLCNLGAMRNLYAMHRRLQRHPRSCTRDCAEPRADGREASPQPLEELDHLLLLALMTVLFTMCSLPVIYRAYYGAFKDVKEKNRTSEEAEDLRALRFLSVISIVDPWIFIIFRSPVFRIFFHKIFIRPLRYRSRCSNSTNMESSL
In words: Binding affinity to DP receptor.

The next test deals with T4, Thromboxane A2 receptor (Homo sapiens, UniProt P21731).
T4 sequence (P21731 whole entry): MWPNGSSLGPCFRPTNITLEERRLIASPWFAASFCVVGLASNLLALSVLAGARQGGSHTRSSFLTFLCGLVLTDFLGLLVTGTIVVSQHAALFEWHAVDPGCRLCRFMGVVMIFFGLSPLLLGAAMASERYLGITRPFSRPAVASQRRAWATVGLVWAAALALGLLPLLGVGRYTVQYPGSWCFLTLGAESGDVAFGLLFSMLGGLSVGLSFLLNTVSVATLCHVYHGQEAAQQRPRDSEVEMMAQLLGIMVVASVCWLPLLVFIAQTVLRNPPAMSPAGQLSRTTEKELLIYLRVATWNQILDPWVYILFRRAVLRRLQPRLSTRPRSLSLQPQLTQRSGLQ
In words: Binding affinity to TP receptor.

Test [6] concerns the target Prostaglandin E2 receptor EP4 subtype (Homo sapiens, UniProt P35408). Nature of the test: Binding affinity to EP4 receptor.
Test [7] addresses T3, Prostaglandin D2 receptor. In words: Activity at DP receptor assessed as inhibition of PGD2-induced cAMP accumulation in platelet. It counts as functional.
Test [8] deals with T3, Prostaglandin D2 receptor. Nature of the test: Activity at DP receptor assessed as inhibition of PGD2-induced cAMP accumulation in platelet rich plasma. It counts as functional.

A value given as a limit tells only on which side of the number the result lay.

Chain of Prostaglandin F2-alpha receptor (P43088 whole entry): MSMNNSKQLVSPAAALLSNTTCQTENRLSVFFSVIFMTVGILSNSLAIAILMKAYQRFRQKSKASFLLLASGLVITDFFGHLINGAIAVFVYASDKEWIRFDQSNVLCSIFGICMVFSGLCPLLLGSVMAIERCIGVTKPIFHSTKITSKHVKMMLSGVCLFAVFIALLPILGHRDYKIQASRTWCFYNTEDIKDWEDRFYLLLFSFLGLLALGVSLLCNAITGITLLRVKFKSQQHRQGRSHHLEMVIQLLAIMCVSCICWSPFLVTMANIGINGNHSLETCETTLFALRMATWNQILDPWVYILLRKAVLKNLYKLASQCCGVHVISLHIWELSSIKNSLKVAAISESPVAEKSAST
Chain of Prostaglandin E2 receptor EP2 subtype (P43116 whole entry): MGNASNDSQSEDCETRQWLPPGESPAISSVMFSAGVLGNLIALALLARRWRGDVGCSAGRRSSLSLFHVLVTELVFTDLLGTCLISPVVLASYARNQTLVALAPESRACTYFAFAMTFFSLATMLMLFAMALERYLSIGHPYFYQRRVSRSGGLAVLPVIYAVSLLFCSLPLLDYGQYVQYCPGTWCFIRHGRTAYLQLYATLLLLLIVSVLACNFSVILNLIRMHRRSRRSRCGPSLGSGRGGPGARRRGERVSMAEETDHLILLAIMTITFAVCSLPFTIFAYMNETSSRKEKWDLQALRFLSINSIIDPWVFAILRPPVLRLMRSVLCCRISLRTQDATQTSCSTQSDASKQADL
Chain of Prostacyclin receptor (P43119 whole entry): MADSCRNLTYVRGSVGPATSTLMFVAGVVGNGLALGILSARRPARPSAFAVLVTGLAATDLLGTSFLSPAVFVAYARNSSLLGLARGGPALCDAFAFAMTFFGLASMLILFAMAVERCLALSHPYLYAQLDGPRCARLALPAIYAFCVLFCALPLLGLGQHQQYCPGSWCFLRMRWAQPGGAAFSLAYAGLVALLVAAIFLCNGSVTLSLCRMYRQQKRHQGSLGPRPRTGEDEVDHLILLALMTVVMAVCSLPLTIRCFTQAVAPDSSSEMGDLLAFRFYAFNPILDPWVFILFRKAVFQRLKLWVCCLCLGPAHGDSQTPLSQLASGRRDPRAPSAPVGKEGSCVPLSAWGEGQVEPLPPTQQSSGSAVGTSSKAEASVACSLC
Chain of Prostaglandin E2 receptor EP4 subtype (P35408 whole entry): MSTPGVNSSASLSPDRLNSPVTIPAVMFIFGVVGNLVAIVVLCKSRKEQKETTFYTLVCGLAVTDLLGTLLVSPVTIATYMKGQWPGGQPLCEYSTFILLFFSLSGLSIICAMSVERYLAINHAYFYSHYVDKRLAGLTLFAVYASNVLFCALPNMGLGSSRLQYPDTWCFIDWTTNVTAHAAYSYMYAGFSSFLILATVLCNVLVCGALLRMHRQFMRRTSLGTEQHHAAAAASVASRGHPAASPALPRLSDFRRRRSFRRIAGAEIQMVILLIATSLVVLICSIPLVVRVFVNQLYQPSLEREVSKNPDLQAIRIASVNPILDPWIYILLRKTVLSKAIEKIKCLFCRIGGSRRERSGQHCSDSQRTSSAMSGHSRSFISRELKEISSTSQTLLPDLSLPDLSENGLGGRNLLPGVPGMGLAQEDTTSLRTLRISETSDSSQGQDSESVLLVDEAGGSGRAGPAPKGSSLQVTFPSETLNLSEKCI

With `O=C(O)CC1CCCc2c1n(Cc1ccc(Cl)cc1)c1c(F)cc(F)cc21` (stereo not drawn), the Ki on Prostacyclin receptor was greater than 2000 nM; in test [1], greater than 4600 nM; in [2] it was greater than 300 nM; in test [3], greater than 7000 nM; in test [4] it was greater than 20000 nM; in [5] it was 11 nM. Moreover, the figures for the Ki (on Thromboxane A2 receptor; in [6]) were 1.7 nM and greater than 2900 nM, respectively.

`CC(=O)c1cc(S(C)(=O)=O)cc2c3c(n(Cc4ccc(Cl)cc4)c12)[C@@H](CC(=O)O)CC3`: the Ki was greater than 20000 nM on Prostacyclin receptor; 230 nM in test [1]; greater than 20000 nM in test [2]; greater than 20000 nM in test [3]; greater than 20000 nM in test [4]; 2.6 nM in test [5]. The figures for the Ki (on Thromboxane A2 receptor; in test [6]) were 1200 nM and greater than 20000 nM, respectively. The IC50 was 2 nM in test [7] and 7.9 nM in test [8].

For `CN(C)S(=O)(=O)c1cc(Br)c2c(c1)c1c(n2Cc2ccc(Cl)cc2)C(CC(=O)O)CC1` (stereo not drawn), the figures for the inhibition constant Ki (in [5]; at Thromboxane A2 receptor) were 4.1 nM and 100 nM, respectively.

With `O=C(O)CC1CCCc2c1n(Cc1ccc(Cl)cc1)c1c(Br)cccc21` (stereo not drawn), the Ki in test [5] was 2.6 nM; at Thromboxane A2 receptor, 2.2 nM.

Consider `CC(C)(C)c1ccc(Cn2c3c(c4cc(S(C)(=O)=O)cc(Br)c42)CCC3CC(=O)O)cc1` (stereo not drawn), for which the Ki in test [5] is 7.5 nM; at Thromboxane A2 receptor, 820 nM.

For `O=C(O)CC1CCCc2c1n(Cc1ccc(Cl)cc1)c1c([S+]([O-])c3ccccc3)cccc21` (stereo not drawn), the Ki stood at 29 nM in [5] and 96 nM at Thromboxane A2 receptor.

Turning to `CS(=O)(=O)c1cc(Br)c2c(c1)c1c(n2Cc2ccc3sc(Cl)c(Cl)c3n2)C(CC(=O)O)CC1` (stereo not drawn), the values for the Ki (in [5]; on Thromboxane A2 receptor) were 4.4 nM and 220 nM, respectively.

On to `C=Cc1cc(S(C)(=O)=O)cc2c3c(n(Cc4ccc(Cl)cc4)c12)C(CC(=O)O)CC3` (stereo not drawn), for which the figures for the Ki (in test [5]; at Thromboxane A2 receptor) were 3.6 nM and 520 nM, respectively.

`C[S+]([O-])c1cccc2c3c(n(Cc4ccc(Cl)cc4)c12)[C@@H](CC(=O)O)CCC3` (single isomer, unassigned; 17): the values for the inhibitory constant (Ki) (in test [5]; on Thromboxane A2 receptor) were 1.8 nM and 47 nM, respectively.

`CS(=O)(=O)c1cc(Br)c2c(c1)c1c(n2Cc2ccc3ccc(Cl)cc3n2)C(CC(=O)O)CC1` (stereo not drawn): the inhibition constant (Ki) in test [5] is 1 nM; at Thromboxane A2 receptor it was 180 nM.

`O=Cc1cccc2c3c(n(Cc4ccc(Cl)cc4)c12)C(CC(=O)O)CCC3` (stereo not drawn): the Ki in [5] was found to be 6.3 nM; on Thromboxane A2 receptor, 6.6 nM.

With `CS(=O)(=O)c1cc(C#N)c2c(c1)c1c(n2Cc2ccc(Cl)cc2)C(CC(=O)O)CC1` (stereo not drawn), the inhibitory constant (Ki) was 9.7 nM in [5] and 1100 nM on Thromboxane A2 receptor.

For `CS(=O)(=O)c1cc(-c2cccs2)c2c(c1)c1c(n2Cc2ccc(Cl)cc2)C(CC(=O)O)CC1` (stereo not drawn), the Ki was found to be 4.5 nM in [5] and 730 nM on Thromboxane A2 receptor.

Consider `C[S+]([O-])c1cccc2c3c(n(Cc4ccc(Cl)cc4)c12)C(CC(=O)O)CCC3` (stereo not drawn), for which the values for the Ki (in test [5]; on Thromboxane A2 receptor) were 2.8 nM and 172 nM, respectively.

Turning to `CS(=O)(=O)c1cc(Br)c2c(c1)c1c(n2Cc2cccc(OC(F)(F)F)c2)C(CC(=O)O)CC1` (stereo not drawn), the Ki in test [5] was 4.1 nM; at Thromboxane A2 receptor it was 260 nM.

On to `CN(C)S(=O)(=O)c1ccc2c(c1)c1c(n2Cc2ccc(Cl)cc2)C(CC(=O)O)CC1` (stereo not drawn), for which the values for the Ki (in [5]; on Thromboxane A2 receptor) were 1100 nM and 2300 nM, respectively.

As to `CS(=O)(=O)c1cc(Br)c2c(c1)c1c(n2Cc2cccc(Cl)c2)C(CC(=O)O)CC1` (stereo not drawn), the figures for the inhibition constant Ki (in test [5]; on Thromboxane A2 receptor) were 3.5 nM and 760 nM, respectively.

For `CC(O)c1cc(S(C)(=O)=O)cc2c3c(n(Cc4ccc(Cl)cc4)c12)C(CC(=O)O)CC3` (stereo not drawn), the inhibition constant Ki in [5] came to 8.5 nM; on Thromboxane A2 receptor it was 16000 nM.

With `CS(=O)(=O)c1ccc(Cn2c3c(c4cc(S(C)(=O)=O)cc(Br)c42)CCC3CC(=O)O)cc1` (stereo not drawn), the Ki in [5] was 1900 nM; at Thromboxane A2 receptor, 2700 nM.

As for `O=C(O)CC1CCCc2c1n(Cc1ccc(Cl)cc1)c1c(C(=O)Nc3ccccc3)cccc21` (stereo not drawn), the results for the Ki (in test [5]; on Thromboxane A2 receptor) were 110 nM and 88 nM, respectively.

For `CC(C)c1cccc2c3c(n(Cc4ccc(Cl)cc4)c12)C(CC(=O)O)CCC3` (stereo not drawn), the figures for the Ki (in [5]; at Thromboxane A2 receptor) were 1.7 nM and 9.1 nM, respectively.

Regarding `CS(=O)(=O)c1cccc2c3c(n(Cc4ccc(Cl)cc4)c12)C(CC(=O)O)CCC3` (stereo not drawn), the Ki came out at 1.9 nM in test [5] and 5.1 nM on Thromboxane A2 receptor.

Turning to `CC(C)[S+]([O-])c1cccc2c3c(n(Cc4ccc(Cl)cc4)c12)C(CC(=O)O)CCC3` (stereo not drawn), the results for the Ki (in test [5]; on Thromboxane A2 receptor) were 23 nM and 1800 nM, respectively.

`CS(=O)(=O)c1ccc2c(c1)c1c(n2Cc2ccc(Cl)cc2)C(CC(=O)O)CCC1` (stereo not drawn): the values for the inhibitory constant (Ki) (in test [5]; on Thromboxane A2 receptor) were 80 nM and 990 nM, respectively.

On to `CN(C)C(=O)c1cccc2c3c(n(Cc4ccc(Cl)cc4)c12)C(CC(=O)O)CCC3` (stereo not drawn), for which the Ki in [5] amounted to 28 nM; at Thromboxane A2 receptor, 3700 nM.

On to `CS(=O)(=O)c1cc(Br)c2c(c1)c1c(n2Cc2ccc(Cl)cc2)C(CC(=O)O)CC1` (stereo not drawn), for which the Ki in test [5] came to 1.7 nM; at Thromboxane A2 receptor it was 200 nM.

As for `CS(=O)(=O)c1cc(C2CCCCC2)c2c(c1)c1c(n2Cc2ccc(Cl)cc2)C(CC(=O)O)CC1` (stereo not drawn), the Ki in [5] came to 2.8 nM; on Thromboxane A2 receptor, 330 nM.

`O=C(O)CC1CCCc2c1n(Cc1ccc(Cl)cc1)c1c([S+]([O-])Cc3ccccc3)cccc21` (stereo not drawn): the values for the inhibitory constant (Ki) (in test [5]; on Thromboxane A2 receptor) were 3.9 nM and 140 nM, respectively.

Take `O=C(O)CC1CCCc2c1n(Cc1ccc(Cl)cc1)c1ccccc21` (stereo not drawn): the inhibitory constant (Ki) in [5] amounted to 36 nM; at Thromboxane A2 receptor, 2.4 nM.

Consider `O=C(O)CC1CCCc2c1n(Cc1ccc(Cl)cc1)c1c(CO)cccc21` (stereo not drawn), for which the Ki stood at 16 nM in [5] and 7.8 nM on Thromboxane A2 receptor.

Consider `CSc1cccc2c3c(n(Cc4ccc(Cl)cc4)c12)C(CC(=O)O)CCC3` (stereo not drawn), for which the Ki in test [5] came to 1 nM; at Thromboxane A2 receptor, 2.6 nM.

`CC(O)c1cc(S(C)(=O)=O)cc2c3c(n(Cc4ccc(Cl)cc4)c12)[C@@H](CC(=O)O)CC3` (stereo partly drawn): the inhibition constant (Ki) was greater than 20000 nM at Prostacyclin receptor; 390 nM in test [1]; greater than 20000 nM in test [2]; greater than 20000 nM in test [3]; greater than 20000 nM in test [4]; 1.8 nM in test [5]. For the same compound, the Ki is 7100 nM at Thromboxane A2 receptor and greater than 2900 nM in test [6]. Also, the IC50 in test [7] came out at 2 nM; in [8] it was 8.6 nM.

The compound `C[S+]([O-])c1cccc2c3c(n(Cc4ccc(Cl)cc4)c12)[C@@H](CC(=O)O)CCC3` (single isomer, unassigned; 16) returned a Ki at Thromboxane A2 receptor of 130 nM.

For `CC(=O)c1cc(S(C)(=O)=O)cc2c3c(n(Cc4ccc(Cl)cc4)c12)C(CC(=O)O)CC3` (stereo not drawn), the inhibition constant Ki was determined as 9.5 nM in test [5] and 3600 nM on Thromboxane A2 receptor.

Regarding `CS(=O)(=O)c1ccc2c(c1)c1c(n2Cc2ccc(Cl)cc2)C(CC(=O)O)CC1` (stereo not drawn), the values for the Ki (in test [5]; at Thromboxane A2 receptor) were 300 nM and 2100 nM, respectively.

As for `CC[S+]([O-])c1cccc2c3c(n(Cc4ccc(Cl)cc4)c12)C(CC(=O)O)CCC3` (stereo not drawn), the Ki in test [5] came to 4 nM; on Thromboxane A2 receptor, 340 nM.
